Source: ChEMBL document CHEMBL4308864, “Targeting tyrosine kinase: Development of acridone - pyrrole - oxindole hybrids against human breast cancer” (2019)

How the values were obtained:
Format in all cases: functional
[1] = tested on: CCRF-CEM; test: Growth inhibition of human CCRF-CEM cells assessed as cell growth at 10^-5 M incubated for 48 hrs by sulforhodamine B assay relative to control; conditions: read-out: Activity
[2] = tested on: K562; test: Growth inhibition of human K562 cells assessed as cell growth at 10^-5 M incubated for 48 hrs by sulforhodamine B assay relative to control; conditions: K562, 48 h, read-out: Activity
[3] = tested on: RPMI-8226; test: Growth inhibition of human RPMI8226 cells assessed as cell growth at 10^-5 M incubated for 48 hrs by sulforhodamine B assay relative to control; conditions: RPMI-8226, 48 h, read-out: Activity
[4] = tested on: SR; test: Growth inhibition of human SR cells assessed as cell growth at 10^-5 M incubated for 48 hrs by sulforhodamine B assay relative to control; conditions: read-out: Activity
[5] = tested on: HOP-62; test: Growth inhibition of human HOP62 cells assessed as cell growth at 10^-5 M incubated for 48 hrs by sulforhodamine B assay relative to control; conditions: HOP-62, 48 h, read-out: Activity
[6] = tested on: NCI-H226; test: Growth inhibition of human NCI-H226 cells assessed as cell growth at 10^-5 M incubated for 48 hrs by sulforhodamine B assay relative to control; conditions: NCI-H226, 48 h, read-out: Activity
[7] = tested on: NCI-H23; test: Growth inhibition of human NCI-H23 cells assessed as cell growth at 10^-5 M incubated for 48 hrs by sulforhodamine B assay relative to control; conditions: NCI-H23, 48 h, read-out: Activity
[8] = tested on: NCI-H460; test: Growth inhibition of human NCI-H460 cells assessed as cell growth at 10^-5 M incubated for 48 hrs by sulforhodamine B assay relative to control; conditions: NCI-H460, 48 h, read-out: Activity
[9] = tested on: NCI-H522; test: Growth inhibition of human NCI-H522 cells assessed as cell growth at 10^-5 M incubated for 48 hrs by sulforhodamine B assay relative to control; conditions: NCI-H522, 48 h, read-out: Activity
[10] = tested on: COLO 205; test: Growth inhibition of human COLO205 cells assessed as cell growth at 10^-5 M incubated for 48 hrs by sulforhodamine B assay relative to control; conditions: COLO 205, 48 h, read-out: Activity
[11] = tested on: HCC 2998; test: Growth inhibition of human HCC2998 cells assessed as cell growth at 10^-5 M incubated for 48 hrs by sulforhodamine B assay relative to control; conditions: HCC 2998, 48 h, read-out: Activity
[12] = tested on: HT-29; test: Growth inhibition of human HT-29 cells assessed as cell growth at 10^-5 M incubated for 48 hrs by sulforhodamine B assay relative to control; conditions: HT-29, 48 h, read-out: Activity
[13] = tested on: SF-539; test: Growth inhibition of human SF539 cells assessed as cell growth at 10^-5 M incubated for 48 hrs by sulforhodamine B assay relative to control; conditions: SF-539, 48 h, read-out: Activity
[14] = tested on: SNB-75; test: Growth inhibition of human SNB75 cells assessed as cell growth at 10^-5 M incubated for 48 hrs by sulforhodamine B assay relative to control; conditions: SNB-75, 48 h, read-out: Activity
[15] = tested on: LOX IMVI; test: Growth inhibition of human LOXIMVI cells assessed as cell growth at 10^-5 M incubated for 48 hrs by sulforhodamine B assay relative to control; conditions: read-out: Activity
[16] = tested on: MDA-MB-435; test: Growth inhibition of human MDA-MB-435 cells assessed as cell growth at 10^-5 M incubated for 48 hrs by sulforhodamine B assay relative to control; conditions: MDA-MB-435, 48 h, read-out: Activity
[17] = tested on: SK-MEL-5; test: Growth inhibition of human SK-MEL-5 cells assessed as cell growth at 10^-5 M incubated for 48 hrs by sulforhodamine B assay relative to control; conditions: SK-MEL-5, 48 h, read-out: Activity
[18] = tested on: UACC-257; test: Growth inhibition of human UACC257 cells assessed as cell growth at 10^-5 M incubated for 48 hrs by sulforhodamine B assay relative to control; conditions: UACC-257, 48 h, read-out: Activity
[19] = tested on: OVCAR-3; test: Growth inhibition of human OVCAR3 cells assessed as cell growth at 10^-5 M incubated for 48 hrs by sulforhodamine B assay relative to control; conditions: OVCAR-3, 48 h, read-out: Activity
[20] = tested on: OVCAR-4; test: Growth inhibition of human OVCAR4 cells assessed as cell growth at 10^-5 M incubated for 48 hrs by sulforhodamine B assay relative to control; conditions: OVCAR-4, 48 h, read-out: Activity
[21] = tested on: OVCAR-5; test: Growth inhibition of human OVCAR5 cells assessed as cell growth at 10^-5 M incubated for 48 hrs by sulforhodamine B assay relative to control; conditions: OVCAR-5, 48 h, read-out: Activity
[22] = tested on: OVCAR-8; test: Growth inhibition of human OVCAR8 cells assessed as cell growth at 10^-5 M incubated for 48 hrs by sulforhodamine B assay relative to control; conditions: OVCAR-8, 48 h, read-out: Activity
[23] = tested on: NCI/ADR-RES; test: Growth inhibition of human NCI/ADR-RES cells assessed as cell growth at 10^-5 M incubated for 48 hrs by sulforhodamine B assay relative to control; conditions: read-out: Activity
[24] = tested on: 786-0; test: Growth inhibition of human 786-0 cells assessed as cell growth at 10^-5 M incubated for 48 hrs by sulforhodamine B assay relative to control; conditions: 786-0, 48 h, read-out: Activity
[25] = tested on: CAKI-1; test: Growth inhibition of human Caki1 cells assessed as cell growth at 10^-5 M incubated for 48 hrs by sulforhodamine B assay relative to control; conditions: CAKI-1, 48 h, read-out: Activity
[26] = tested on: SN12C; test: Growth inhibition of human SN12C cells assessed as cell growth at 10^-5 M incubated for 48 hrs by sulforhodamine B assay relative to control; conditions: read-out: Activity
[27] = tested on: TK-10; test: Growth inhibition of human TK10 cells assessed as cell growth at 10^-5 M incubated for 48 hrs by sulforhodamine B assay relative to control; conditions: TK-10, 48 h, read-out: Activity
[28] = tested on: PC-3; test: Growth inhibition of human PC3 cells assessed as cell growth at 10^-5 M incubated for 48 hrs by sulforhodamine B assay relative to control; conditions: PC-3, 48 h, read-out: Activity
[29] = tested on: DU-145; test: Growth inhibition of human DU145 cells assessed as cell growth at 10^-5 M incubated for 48 hrs by sulforhodamine B assay relative to control; conditions: DU-145, 48 h, read-out: Activity
[30] = tested on: MDA-MB-231; test: Growth inhibition of human MDA-MB-231 cells assessed as cell growth at 10^-5 M incubated for 48 hrs by sulforhodamine B assay relative to control; conditions: MDA-MB-231, 48 h, read-out: Activity
[31] = tested on: Hs-578T; test: Growth inhibition of human Hs578T cells assessed as cell growth at 10^-5 M incubated for 48 hrs by sulforhodamine B assay relative to control; conditions: read-out: Activity
[32] = tested on: BT-549; test: Growth inhibition of human BT549 cells assessed as cell growth at 10^-5 M incubated for 48 hrs by sulforhodamine B assay relative to control; conditions: BT-549, 48 h, read-out: Activity

SMILES	growth at 10 µM [1]	growth at 10 µM [2]	growth at 10 µM [3]	growth at 10 µM [4]	growth at 10 µM [5]	growth at 10 µM [6]	growth at 10 µM [7]	growth at 10 µM [8]	growth at 10 µM [9]	growth at 10 µM [10]	growth at 10 µM [11]	growth at 10 µM [12]	growth at 10 µM [13]	growth at 10 µM [14]	growth at 10 µM [15]	growth at 10 µM [16]	growth at 10 µM [17]	growth at 10 µM [18]	growth at 10 µM [19]	growth at 10 µM [20]	also measured
O=C1/C(=C\c2cccn2CCCCn2c3ccccc3c(=O)c3ccccc32)c2ccccc2N1c1c(Cl)cccc1Cl	103%	91.5%	97.4%	87.7%	104%	89.5%	101%	104%	90%	70%	46.7%	110%	98.9%	91.9%	98.1%	103%	98.7%	101%	118%	78.3%	growth at 10 µM [21]: 104%; growth at 10 µM [22]: 98.3%; growth at 10 µM [23]: 101%; growth at 10 µM [24]: 103%; growth at 10 µM [25]: 87.4%; growth at 10 µM [26]: 101%; growth at 10 µM [27]: 108%; growth at 10 µM [28]: 78.9%; growth at 10 µM [29]: 111%; growth at 10 µM [30]: 98.4%; growth at 10 µM [31]: 103%; growth at 10 µM [32]: 105%
O=C1/C(=C\c2cccn2CCCCCCn2c3ccccc3c(=O)c3ccccc32)c2ccccc2N1c1c(Cl)cccc1Cl	108%	97.9%	93.4%	91.5%	102%	81.9%	101%	109%	91%	92.8%	78.8%	106%	104%	95.2%	98.5%	105%	94.7%	99.6%	102%	58.3%	growth at 10 µM [21]: 93.5%; growth at 10 µM [22]: 98.5%; growth at 10 µM [23]: 104%; growth at 10 µM [24]: 103%; growth at 10 µM [25]: 87.8%; growth at 10 µM [26]: 103%; growth at 10 µM [27]: 91%; growth at 10 µM [28]: 73.9%; growth at 10 µM [29]: 113%; growth at 10 µM [30]: 101%; growth at 10 µM [31]: 103%; growth at 10 µM [32]: 104%
O=C1/C(=C\c2cccn2CCCCCn2c3ccccc3c(=O)c3ccccc32)c2ccccc2N1c1c(Cl)cccc1Cl	100%	97.6%	92.3%	92.3%	102%	91.6%	98%	99.7%	84.9%	72.2%	66.3%	96.2%	97%	87.3%	96.6%	108%	96.2%	100%	99.1%	62.3%	growth at 10 µM [21]: 94.5%; growth at 10 µM [22]: 97.7%; growth at 10 µM [23]: 97.3%; growth at 10 µM [24]: 104%; growth at 10 µM [25]: 74.4%; growth at 10 µM [26]: 100%; growth at 10 µM [27]: 99.8%; growth at 10 µM [28]: 73.2%; growth at 10 µM [29]: 111%; growth at 10 µM [30]: 97.5%; growth at 10 µM [31]: 101%; growth at 10 µM [32]: 97.1%
O=C1Nc2ccccc2/C1=C/c1cccn1CCCCCCn1c2ccccc2c(=O)c2ccccc21	49.8%	66.6%	25.3%	80.8%	63.2%	72.7%	73.6%	90.7%	66%	50.5%	42.8%	92.9%	100%	92.3%	91.2%	96.7%	34.7%	110%	64.9%	53.8%	growth at 10 µM [21]: 82.2%; growth at 10 µM [22]: 47.5%; growth at 10 µM [23]: 71.8%; growth at 10 µM [24]: 103%; growth at 10 µM [25]: 72.6%; growth at 10 µM [26]: 93.6%; growth at 10 µM [27]: 78.7%; growth at 10 µM [28]: 40.1%; growth at 10 µM [29]: 94%; growth at 10 µM [30]: 75.4%; growth at 10 µM [31]: 96.3%; growth at 10 µM [32]: 63.5%
